{"source": "patent EP2525820B1", "about": "“NOVEL CLASS OF MONOSPECIFIC AND BISPECIFIC HUMANIZED ANTIBODIES THAT TARGET THE INSULIN-LIKE GROWTH FACTOR TYPE I RECEPTOR (IGF-1R)” (Immunomedics, Inc., priority 2010, dated 2011)", "key": {"CAG human myeloma cells": {"test_system": "CAG human myeloma cells", "format": "in vivo, SCID mice", "experimental": "CAG human myeloma cells are grown in cell culture to a density that allows 1 million cells to be harvested for transplantation to 6-8-week old female SCID mice obtained from Charles River Laboratories (Frederick, MD). The mice are immunosuppressed by pretreatment with fludarabine and cyclophosphamide 3 days before intravenous injection of 5-10 x […] myeloma cells as described in Stein et al. (Blood. 2004; 104:3705-11). Mice are examined daily for signs of distress or hind-leg paralysis, and weighed weekly. Paralysis of the hind legs or a weight loss of ≥ 20% is used as the survival endpoint, when the animals are euthanized. Groups of 8-10 mice are used. […] The effects of combining bortezomib with hR1 are evaluated in the same myeloma model. Treatments are given as two i.p. doses/week for 3 weeks, initiated on day 5 after injection of the myeloma cells. […] Treatment with hR1 at 0.6 mg/mouse repeated twice weekly for 3 weeks increases the median survival time to 60 days. When bortezomib and hR1 treatments are combined, the median survival time is increased further to 79 days for 0.5 mg bortezomib + 0.6 mg hR1, which is significant (P=0.04)."}, "DDD": {"molecular_target": "DDD", "sequence (P13861 2-45 limits assumed)": "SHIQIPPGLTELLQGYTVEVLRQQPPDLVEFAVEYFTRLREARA", "settings": "DDD of RII / RIIα dimers; read-out: binding constant for DDD; cited from earlier work"}, "RII isoform of PKA": {"molecular_target": "RII isoform of PKA (Homo sapiens, UniProt P13861)", "sequence (P13861 whole entry, canonical isoform)": "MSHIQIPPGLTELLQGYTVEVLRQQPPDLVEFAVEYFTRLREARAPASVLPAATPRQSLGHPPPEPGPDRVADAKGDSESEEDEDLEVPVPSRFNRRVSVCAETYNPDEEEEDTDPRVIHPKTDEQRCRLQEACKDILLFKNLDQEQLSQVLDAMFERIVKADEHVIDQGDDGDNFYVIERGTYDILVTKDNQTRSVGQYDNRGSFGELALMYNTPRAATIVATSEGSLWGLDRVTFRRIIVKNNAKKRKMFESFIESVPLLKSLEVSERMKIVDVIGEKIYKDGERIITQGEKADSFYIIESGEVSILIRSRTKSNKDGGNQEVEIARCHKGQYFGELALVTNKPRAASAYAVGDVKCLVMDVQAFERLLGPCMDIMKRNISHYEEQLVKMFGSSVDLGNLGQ", "settings": "cited from earlier work"}}}
{"molecule": "CC(C)C[C@H](NC(=O)[C@H](Cc1ccccc1)NC(=O)c1cnccn1)B(O)O", "note": "[bortezomib]", "values": [{"measurement": "increase of median survival", "setting": "CAG human myeloma cells; 0.5 mg/kg, versus untreated control mice", "value": 21.2, "unit": "%"}, {"measurement": "tolerability, body-weight loss", "setting": "CAG human myeloma cells; mouse, in vivo, 0.5 mg/kg", "value": "well tolerated, with no body-weight loss"}, {"measurement": "median survival", "setting": "CAG human myeloma cells; two i.p. doses/week for 3 weeks from day 5, bortezomib 0.5 mg/kg, hR1 0.6 mg/mouse, untreated control 33 days", "value": 40, "unit": "days"}]}
{"molecule": "QIEYLAKQIVDNAIQQA (SEQ ID NO: 17) [AKAP-IS]", "values": [{"measurement": "Kd", "setting": "DDD", "value": 0.4, "unit": "nM"}]}
{"molecule": "QIEYVAKQIVDYAIHQA (SEQ ID NO:39) [SuperAKAP-IS]", "values": [{"measurement": "selectivity for the RII isoform of PKA compared with the RI isoform", "setting": "RII isoform of PKA", "value": "five order of magnitude higher selectivity"}]}
